The nature of series [1]: Dog pharmacokinetic study. The class given is in vivo. The settings on record: sc 67 μg/kg; vehicle propylene glycol/pH 7.4 phosphate buffer (1:1). As for the experimental part: The pharmacokinetic parameters of the Compounds of SEQ ID NO: 9, 118, 151 and 158 were determined in male beagle dogs (n=3-4, 14±1 kg). Following an overnight fast, each animal received the Compounds of SEQ ID NO: 9, 118, 151 and 158 either as an intravenous bolus via femoral vein (67 μg/kg) or by subcutaneous injection given at near the shoulder blades (67 μg/kg). Each animal received both intravenous and subcutaneous doses with a one-week washout between doses following a crossover design. The dosing vehicle for both routes of administration was propylene glycol:pH 7.4 phosphate buffer (50:50) or 0.2 M Tris (pH 8.0). Serial blood samples were collected in EDTA-containing microcentrifuge tubes at predose, 0.083, 0.25, 0.5, 0.75, 1, 2, 4, 6, 8, 24, and 30 hours post-dose after intravenous administration; at predose, 0.25, 0.5, 0.75, 1, 2, 4, 6, 8, 24, and 30 hours post-dose after subcutaneous administration. Approximately 0.3 mL of blood was collected at each time point. Blood samples were immediately centrifuged at 4° C. The obtained plasma was frozen with dry ice and stored at −20° C. Plasma drug levels were determined using the LC-MS/MS assay described below.
Plasma samples from the in vivo dog study were prepared for analysis by precipitating plasma proteins with two volumes of AcCN containing an internal standard. The samples were vortex mixed and the precipitated proteins were removed by centrifugation. The resulting supernatants were transferred to a 96-well plate and 10 μL were injected for TFC-LC/MS/MS analysis.
The TFC-HPLC system (Cohesive TX-1 Flux, Aria 2300 System) consisted of a loading pump, an eluting pump, and a CTC PAL autosampler (Cohesive Technologies, Franklin, Mass.). The columns used were Phenomenex Synergi Fusion-RP (C18, 2.0×50 mm, 4μ) (Phenomenex, Torrance, Calif.) as the analytical column and Turbo-Flow (TF) HTLC Cyclone column (0.5×50 mm) (Cohesive Technologies, Franklin, Mass.) as the extraction column for on-line sample processing. The mobile phase A consisted of 10 mM ammonium formate and 0.1% formic acid in water and mobile phase B consisted of 0.1% formic acid in AcCN. Turbo-Flow Chromatography was used to obtain a cleaner sample. A rapid gradient elution was used for analyte separation. The samples were injected onto the Turbo-Flow HTLC Cyclone column and analytes were separated from biological fluid components with using 100% H2O at 1.5 mL/min. The TF column was back flushed and analytes were back eluted from the TF to HPLC analytical column using a ramp to 60% B over 2 min and held there for 30 seconds at 0.3 mL/min to separate and to elute the analytes from the HPLC column into the mass spectrometer. Both columns were washed for an additional minute and then both columns were re-equilibrated at initial conditions.
The HPLC was interfaced to a Sciex API 4000 mass spectrometer (Applied Biosystems, Foster City, Calif.) and was equipped with a TurboIonspray ionization source. Ultra high purity nitrogen was used as the nebulizing and turbo-gas. The temperature of turbo-gas was set at 300° C. and the interface heater was set at 60° C. Selected Reaction Monitoring (SRM) was used for data acquisition. Multiple charged ion species, i.e. (M+2H)^2+ for Compound of SEQ ID NO: 158 were selected in Q1 and were collisionally dissociated with high purity nitrogen at a pressure of 3.5×10^−3 torr in Q2 to form specific product ions which were subsequently monitored in Q3. The ion transitions and voltages are summarized below (Table 4).
The standard curve concentrations, ranging from 1 to 1000 nM, were analyzed in duplicate. The curves were fitted with a linear regression weighted by reciprocal concentration […]. Quality control (QC) samples, prepared in blank matrix at the same concentrations as the standards were also analyzed in each analytical set. […]

The next series deals with ob/ob mice. Nature of the series: Intraperitoneal glucose tolerance test (ipGTT) in ob/ob mice after sc injection. The series is classed as in vivo, mouse. The conditions noted are these: 10 nmol/kg sc; relative to vehicle-treated group. How it is done: Peptides were dissolved in an appropriate vehicle at a concentration in nmol/ml equivalent to the dose that was to be administered in nmol/kg so that each mouse would receive the same volume/weight of dosing solution. Male C57BL/6-ob/ob mice (10 weeks old) were randomized into groups of 6 mice per group based on fed plasma glucose and body weight. After an overnight fast, mice were weighed and placed in the experimental lab. After 30 min in the environment, the mice were bled via tail tip at −30 min and immediately injected subcutaneously (sc) with vehicle or the peptide dissolved in vehicle (0.1 ml solution/100 g body weight). At time 0 the mice were bled and then injected intraperitoneally with 50% glucose (2 g/kg) to initiate the intraperitoneal glucose tolerance test (ipGTT). The mice were bled 30, 60, 120 and 180 min after the glucose injection. Blood samples were drawn into potassium EDTA, placed on ice during the study and subsequently centrifuged for 10 min at 3000 rpm at 4° C. Plasma samples were diluted 11-fold for glucose analysis in the Cobas System. Another 5 μl plasma sample was diluted 5-fold with 20 μl of Sample Diluent (Insulin ELISA assay kit, Crystal Chem. Inc.) and stored at −20° C. for subsequent analysis using the Ultra Sensitive Mouse Insulin ELISA kit (Crystal Chem Inc.).

The target of another series is T1, Human GLP-1 Receptor (Homo sapiens, UniProt P43220).
T1 construct: Full-length human glucagon-like peptide 1 receptor was stably expressed in CHO-K1 cells; expressed in transfected cells; host or cells: CHO-K1 (clone CHO-GLP1R-19)
Nature of the series: Cyclic AMP determination in CHO cells expressing human GLP-1 receptor. The settings on record: human GLP-1 receptor. The class given is cell-based. As for the experimental part: CHO-GLP-1R-19 cells (20,000 in 100 μl of media) were plated into each well of a 96-well tissue culture microtiter plate and incubated overnight in a 5% CO2 atmosphere at 37° C. On the day of the assay, cells were washed once with 100 μl of phosphate-buffered saline (PBS). A Biomek 2000 was used to serially dilute all peptides prior to beginning the assay. Serial dilutions were carried out in 100% DMSO.
50 μl of each cAMP standard was added by hand and 70 μl of mix reagent (Amersham cAMP SPA kit) was added using the multidrop. […] This standard curve was used to convert CPM to pmol of cAMP.
Cell plates and peptide plates were loaded onto the Platemate. The media was aspirated from the wells and discarded. 100 uL per well of the peptide/buffer mixture were then added from the peptide plates to initiate the assay. After 30 min. of incubation the peptide/buffer was removed and 50 uL of the lysis reagent 1 solution was added per well. The plate was kept for one hour at RT or overnight if refrigerated and sealed.
Dose dependence for Compounds was determined at half-log concentrations in duplicate. […] A standard curve was determined using known amounts of cyclic AMP. […] The data were analyzed by nonlinear regression curve fitting (4 parameter sigmoidal dose-response curve) to determine the EC50 of the compounds.

The target in series [2] is Full-length human glucagon-like peptide 1 receptor (human, UniProt P43220 24-463). Nature of the series: cell-based or functional assay.

*1 amine or outer side, *2 acyl side, *3 side chain or, on linkers, in order; H or OH if unused. Where a SMILES comes first, the peptide text is derived from it. Primed or numbered codes have the meaning given here. [ ]: non-standard residue; d: D form. The star is where a group is joined. ξ: configuration not given here. X1 = 4‑(2′-methylphenyl)‑3‑pyridylalanine, Cc1ccccc1-c1ccncc1C[C@H](N[*:1])C(=O)[*:2]; Ala(6-(2-MePh)pyridin-3-yl) = Cc1ccccc1-c1ccc(C[C@H](N)C(=O)O)cn1; Phe(4-(2-Et-4-HO-Ph)) = CCc1cc(O)ccc1-c1ccc(C[C@H](N)C(=O)O)cc1; Bip(2'-Et-4'-OMe) = CCc1cc(OC)ccc1-c1ccc(C[C@H](N)C(=O)O)cc1; X2 = Cc1ccccc1-c1ncc(C[C@H](N[*:1])C(=O)[*:2])cn1; αMePhe(2,6-F2) = C[C@](N)(Cc1c(F)cccc1F)C(=O)O; αMePhe(2-F) = C[C@](N)(Cc1ccccc1F)C(=O)O; ξαMePhe(2-F) = CC(N)(Cc1ccccc1F)C(=O)O; αMeP = C[C@@]1(C(=O)O)CCCN1; dNMeA = CN[C@H](C)C(=O)O; ξαMeP = CC1(C(=O)O)CCCN1; Aib = CC(C)(N)C(=O)O; Moc = COC(=O)*

T1 sequence (P43220 24-463): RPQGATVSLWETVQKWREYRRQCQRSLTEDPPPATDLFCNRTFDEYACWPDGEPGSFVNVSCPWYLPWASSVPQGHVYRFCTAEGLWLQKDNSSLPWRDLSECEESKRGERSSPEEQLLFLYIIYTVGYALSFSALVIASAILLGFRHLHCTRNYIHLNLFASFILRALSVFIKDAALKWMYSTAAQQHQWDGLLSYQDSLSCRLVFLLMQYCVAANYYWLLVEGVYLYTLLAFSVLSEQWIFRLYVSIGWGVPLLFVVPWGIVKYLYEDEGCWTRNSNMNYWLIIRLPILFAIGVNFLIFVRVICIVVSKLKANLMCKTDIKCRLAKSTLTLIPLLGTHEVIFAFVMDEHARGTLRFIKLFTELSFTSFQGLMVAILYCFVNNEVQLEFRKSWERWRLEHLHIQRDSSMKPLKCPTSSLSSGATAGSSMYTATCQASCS

For the molecule `CCc1cc(OC)ccc1-c1ccc(C[C@H](NC(=O)[C@H](CC(=O)O)NC(=O)[C@H](CO)NC(=O)[C@@H](NC(=O)[C@](C)(Cc2ccccc2F)NC(=O)[C@@H](NC(=O)CNC(=O)[C@H](CCC(=O)O)NC(=O)[C@@H](C)N(C)C(=O)[C@@H](N)Cc2c[nH]cn2)[C@@H](C)O)[C@@H](C)O)C(=O)N[C@@H](Cc2ccc(-c3ccccc3C)nc2)C(N)=O)cc1` [SEQ ID NO: 119] (H-H[dNMeA]EGT[αMePhe(2-F)]TSD[Bip(2'-Et-4'-OMe)][Ala(6-(2-MePh)pyridin-3-yl)]-NH2), the “Exposure in dogs (sc@67 μg/kg)” value in series [1] amounted to 1.257 µM·h. Still for that read-out and setting: for `CCc1cc(OC)ccc1-c1ccc(C[C@H](NC(=O)[C@H](CC(=O)O)NC(=O)[C@H](Cc2c[nH]cn2)NC(=O)[C@@H](NC(=O)[C@](C)(Cc2ccccc2F)NC(=O)[C@@H](NC(=O)CNC(=O)[C@H](CCC(=O)O)NC(=O)[C@]2(C)CCCN2C(=O)[C@@H](N)Cc2c[nH]cn2)[C@@H](C)O)[C@@H](C)O)C(=O)N[C@@H](Cc2ccc(-c3ccccc3C)nc2)C(N)=O)cc1` [SEQ ID NO: 120] (H-H[αMeP]EGT[αMePhe(2-F)]THD[Bip(2'-Et-4'-OMe)][Ala(6-(2-MePh)pyridin-3-yl)]-NH2) the value was 1.116 µM·h.

`CCc1cc(OC)ccc1-c1ccc(C[C@H](NC(=O)[C@H](CC(=O)O)NC(=O)[C@H](CO)NC(=O)[C@@H](NC(=O)[C@](C)(Cc2ccccc2F)NC(=O)[C@@H](NC(=O)CNC(=O)[C@H](CCC(=O)O)NC(=O)C(C)(C)NC(=O)[C@@H](N)Cc2c[nH]cn2)[C@@H](C)O)[C@@H](C)O)C(=O)N[C@@H](Cc2cnc(-c3ccccc3C)nc2)C(N)=O)cc1` [SEQ ID NO: 130] (H-H[Aib]EGT[αMePhe(2-F)]TSD[Bip(2'-Et-4'-OMe)][X2]-NH2): the “Exposure in dogs (sc@67 μg/kg)” value in series [1] is 0.541 µM·h. As for `CCc1cc(OC)ccc1-c1ccc(C[C@H](NC(=O)[C@H](CC(=O)O)NC(=O)[C@H](CO)NC(=O)[C@@H](NC(=O)C(C)(Cc2ccccc2F)NC(=O)[C@@H](NC(=O)CNC(=O)[C@H](CCC(=O)O)NC(=O)C2(C)CCCN2C(=O)[C@H](Cc2c[nH]cn2)NC(=O)OC)[C@@H](C)O)[C@@H](C)O)C(=O)N[C@@H](Cc2ccc(-c3ccccc3C)nc2)C(N)=O)cc1` (stereo partly drawn) [SEQ ID NO: 139] (Moc-H[ξαMeP]EGT[ξαMePhe(2-F)]TSD[Bip(2'-Et-4'-OMe)][Ala(6-(2-MePh)pyridin-3-yl)]-NH2), in the series with ob/ob mice, the “Potency in ob/ob mice: % AUC Reduction in Plasma Glucose in an IP Glucose Tolerance Test after SC Injection of Compound” value is −63% (p < 0.01). The “Exposure in dogs (sc@67 μg/kg)” value in series [1] is 1.603 µM·h. Turning to `CCc1cc(OC)ccc1-c1ccc(C[C@H](NC(=O)[C@H](CC(=O)O)NC(=O)[C@H](CO)NC(=O)[C@@H](NC(=O)[C@](C)(Cc2c(F)cccc2F)NC(=O)[C@@H](NC(=O)CNC(=O)[C@H](CCC(=O)O)NC(=O)[C@]2(C)CCCN2C(=O)[C@H](Cc2c[nH]cn2)NC(=O)OC)[C@@H](C)O)[C@@H](C)O)C(=O)N[C@@H](Cc2ccc(-c3ccccc3C)nc2)C(N)=O)cc1` [SEQ ID NO: 140] (Moc-H[αMeP]EGT[αMePhe(2,6-F2)]TSD[Bip(2'-Et-4'-OMe)][Ala(6-(2-MePh)pyridin-3-yl)]-NH2), the “Exposure in dogs (sc@67 μg/kg)” value in series [1] worked out at 0.283 µM·h. Take `CCc1cc(OC)ccc1-c1ccc(C[C@H](NC(=O)[C@H](CC(=O)O)NC(=O)[C@H](CO)NC(=O)[C@@H](NC(=O)[C@](C)(Cc2ccccc2F)NC(=O)[C@@H](NC(=O)CNC(=O)[C@H](CCC(=O)O)NC(=O)[C@@H](C)NC(=O)[C@@H](N)Cc2c[nH]cn2)[C@@H](C)O)[C@@H](C)O)C(=O)N[C@@H](Cc2ccc(-c3ccccc3C)nc2)C(N)=O)cc1` [SEQ ID NO: 149] (H-H[dA]EGT[αMePhe(2-F)]TSD[Bip(2'-Et-4'-OMe)][Ala(6-(2-MePh)pyridin-3-yl)]-NH2): in series [1], the “Exposure in dogs (sc@67 μg/kg)” value came to 0.94 µM·h. Regarding `CCc1cc(OC)ccc1-c1ccc(C[C@H](NC(=O)[C@H](CC(=O)O)NC(=O)[C@H](CO)NC(=O)[C@@H](NC(=O)[C@](C)(Cc2ccccc2F)NC(=O)[C@@H](NC(=O)CNC(=O)[C@H](Cc2c[nH]cn2)NC(=O)C(C)(C)NC(=O)[C@@H](N)Cc2c[nH]cn2)[C@@H](C)O)[C@@H](C)O)C(=O)N[C@@H](Cc2ccc(-c3ccccc3C)nc2)C(N)=O)cc1` [SEQ ID NO: 150] (H-H[Aib]HGT[αMePhe(2-F)]TSD[Bip(2'-Et-4'-OMe)][Ala(6-(2-MePh)pyridin-3-yl)]-NH2), the “Exposure in dogs (sc@67 μg/kg)” value in series [1] came out at 0.979 µM·h.

The molecule `CCc1cc(O)ccc1-c1ccc(C[C@H](NC(=O)[C@H](CC(=O)O)NC(=O)[C@H](Cc2c[nH]cn2)NC(=O)[C@@H](NC(=O)C(C)(Cc2ccccc2F)NC(=O)[C@@H](NC(=O)CNC(=O)[C@H](CCC(=O)O)NC(=O)C2(C)CCCN2C(=O)[C@H](Cc2c[nH]cn2)NC(=O)OC)[C@@H](C)O)[C@@H](C)O)C(=O)N[C@@H](Cc2ccc(-c3ccccc3C)nc2)C(N)=O)cc1` (stereo partly drawn) [SEQ ID NO: 157] (Moc-H[ξαMeP]EGT[ξαMePhe(2-F)]THD[Phe(4-(2-Et-4-HO-Ph))][Ala(6-(2-MePh)pyridin-3-yl)]-NH2) displayed an Emax at Human GLP-1 Receptor (CHO, percent of maximal GLP-1 stimulated activity) of 99.4%. Also, the “Mean Hill” value at Human GLP-1 Receptor worked out at 1.9.

B1: Compound of SEQ ID NO: 157 (peptide)
peptide: Moc-H[αMeP]EGT[αMePhe(2-F)]THD[Phe(4-(2-Et-4-HO-Ph))][X1]-NH2
Turning to B1, in series [2], the “Mean EC50 (nM), stimulation of cAMP synthesis in CHO cells” value came to 0.026 nM and the “Mean Emax (%), stimulation of cAMP synthesis in CHO cells” value is 99.4%.

As a reminder, the Emax is the maximal effect, on the per cent scale that the assay sets.
